The subject of the test is Porcine Smooth Muscle Cell. The experiment in a line: Effects of Compounds on Cell Proliferation Using 3H Thymidine Incorporation. It counts as cell-based. Particulars: for IC50: serum/growth factor stimulated cells, 24-36 h incubation, read-out: Porcine Smooth Muscle Cell Antiproliferation IC50; for Porcine Smooth Muscle Cell Antiproliferation, percent inhibition: control (100%) = maximally stimulated cells. Here is the method:
Effects of Compounds on Cell Proliferation Using ^3H Thymidine Incorporation
Human and porcine smooth muscle cells were tested in early passage (generally passage 3-7) at sub-confluent conditions. Cultures were grown in 16 mm (24 well) multi-well culture dishes in medium 199 supplemented with 10% fetal bovine serum and 2% antibiotic/antimycotic. At sub-confluence, the cells were placed in a defined serum free medium (AIM-V; Gibco) for 24-48 h prior to initiating the experimental protocol.
Compounds were added to each well at 50 fold dilution (20 μL/well) and the plates were incubated for 24-36 h at 37° C. in 5% CO2. Compounds were initially dissolved in 50% ethanol and serially diluted into media. Compounds were routinely evaluated at concentrations from 1 to 100 μM. As a control, grade II porcine intestinal mucosal heparin (sodium salt) was routinely evaluated in all cell preparations at concentrations from 0.1 to 100 μg/mL.
At the completion of the test procedure, plates were placed on ice, washed three times with ice cold phosphate buffered saline (PBS) and incubated in ice cold 10% trichloroacetic acid (TCA) got 30 min to remove acid soluble proteins. Solution was transferred to scintillation vials containing 0.4 N HCl (500 μL/vial to neutralize NaOH) and each well was rinsed two times with water (500 μL) for a total volume of 2 mL/vial.
Data was obtained, in triplicate, for both control and experimental samples. Control (100%) data was obtained from maximally stimulated cells, as the result of growth factor or serum stimulation. Experimental data was obtained from cells maximally stimulated with growth factor or serum and treated with compound. Data are expressed as an IC50 or percent inhibition in Table I below.
Background: Dividing cells build labelled thymidine or BrdU into new DNA.

In the case of `CC(=O)Nc1cc(COC2OC(COC(=O)c3cccc(C(F)(F)F)c3)C(OC3OC4COC(c5ccccc5)OC4C(O)C3O)C(O)C2O)ccc1Cl` [Example 42, (R)-N-[2-Chloro-5-[[[6-O-(3-trifluoromethylbenzoyl)-4-O-[4,6O-(phenyl-methylene)-α-D-glucopyranosyl]-β-D-glucopyranosyl]oxy]methyl]phenyl]acetamide], the IC50 came to 27 nM.

Regarding `CC(=O)Nc1cc(COC2OC(CO)C(OC3OC4COC(c5ccncc5)OC4C(O)C3O)C(O)C2O)ccc1Cl` [Example 22, N-(2-Chloro-5-{[4′,6′-O-(4-pyridinemethylidene)-β-D-maltosyl]-oxy-methyl}-phenyl)-acetamide], the IC50 is 5530 nM.

As for `O=C(Nc1cc(COC2OC(COC(=O)c3ccccc3)C(OC3OC4COC(c5ccccc5)OC4C(O)C3O)C(O)C2O)ccc1Cl)c1ccc(C(=O)c2ccccc2)cc1` [Example 71, 4-Benzoyl-N-{5-[(6-benzoyl-oxy-4′,6′-O-benzylidene-β-D-maltosyl)-oxy-methyl]-2-chloro-phenyl}-benzoic acid amide], the IC50 was 50 nM.

Turning to `CC(=O)N(C)c1cc(COC2OC(COC(=O)c3ccccc3)C(OC3OC4COC(c5ccccc5)OC4C(O)C3O)C(O)C2O)ccc1Cl` [Example 79, N-{5-[(6-O-Benzoyl-4′,6′-O-benzylidene-β-D-maltosyl)-oxymethyl]-2-chloro-phenyl}-N-methyl-acetamide], the IC50 was 2360 nM.

As for `CC(=O)Nc1cc(COC2OC(COC(=O)c3cccnc3)C(OC3OC4COC(c5ccccc5)OC4C(O)C3O)C(O)C2O)ccc1Cl` (centres unmarked) [Example 54, Nicotinic acid 6-(3-acetylamino-4-chloro-benzyloxy)-3-(7,8-dihydroxy-2-phenyl-hexahydro-pyrano[32-d][1,3]dioxin-6-yloxy)-4,5-dihydroxy-tetrahydro-pyran-2-ylmethyl ester], the IC50 was found to be 211 nM.

Turning to `CC(=O)Nc1cc(COC2OC(COC(=O)c3ccccc3)C(OC3OC4COC(c5ccccc5)OC4C(O)C3O)C(O)C2O)ccc1C` [Example 85, N-{5-[(6-O-Benzoyl-4′,6′-O-benzylidene-β-D-maltosyl)-oxy-methyl]-2-methyl-phenyl}-acetamide], the IC50 was found to be 418 nM.

Turning to `CC(=O)OCC1OC(OCc2ccc(C)c(N(C(C)=O)C(C)=O)c2)C(OC(C)=O)C(OC(C)=O)C1OC1OC2COC(c3ccccc3)OC2C(OC(C)=O)C1OC(C)=O` [Example 58, N-Acetyl-{5-[(2,2′,3,3′,6-penta-O-acetyl-4′,6′-O-benzylidene-β-D-maltosyl)-oxy-methyl]-2-methyl-phenyl}acetamide], the IC50 worked out at 600 nM.

Regarding `CCOCC[C@@H]1OC[C@H]2O[C@H](O[C@H]3[C@H](O)[C@@H](O)[C@H](OCc4ccc(Cl)c(NC(C)=O)c4)O[C@@H]3CO)[C@H](O)[C@@H](O)[C@@H]2O1` [Example 20, N-{2-Chloro-5-[(4′,6′-O-((1R)-3-ethoxy-propylidene)-β-D-maltosyloxy)-methyl]-phenyl}-acetamide], the “Porcine Smooth Muscle Cell Antiproliferation, percent inhibition” value (@ 50 μM) is listed as 48% @ 50.

As for `CC(=O)Nc1cc(CO[C@@H]2O[C@H](COC(=O)c3ccccc3)[C@@H](O[C@@H]3O[C@@H]4CO[C@@H](c5ccccc5)O[C@H]4[C@H](OC(C)=O)[C@H]3OC(C)=O)[C@H](OC(C)=O)[C@H]2OC(C)=O)ccc1Cl` [Example 27, (R)-N-[2-Chloro-5-[[[2,3-di-O-acetyl-6-O-benzoyl-4-O-[2,3-di-O-acetyl-4,6-O-(phenylmethylene)-β-D-glucopyranoysl]-β-D-glucopyranosyl]oxy]-methyl]-phenyl]acetamide], the IC50 was 70 nM.

Regarding `CC(NC(=O)OCC1c2ccccc2-c2ccccc21)C(=O)Nc1cc(COC2OC(COC(=O)c3ccccc3)C(OC3OC4COC(c5ccccc5)OC4C(O)C3O)C(O)C2O)ccc1Cl` [Example 76, N-(9H-Fluoren-9ylmethoxycarbonyl)-N′-{5-[(6-O-benzoyl-4′,6′-O-benzylidene-β-D-maltosyl)-oxy-methyl]-2-chloro-phenyl}-L-alaninamide], the IC50 worked out at 156 nM.

Take `CC(=O)Nc1cc(COC2OC(COC(=O)c3ccccc3)C(OC3OC4COC(C(C)C)OC4C(O)C3O)C(O)C2O)ccc1Cl` [Example 15, N-{5-[(6-O-Benzoyl-4′,6′-O-isobutylidene-β-D-maltosyl)-oxy-methyl]-2-chloro-phenyl}-acetamide]: the IC50 turned out to be 3 nM.

For `CC(=O)Nc1cc(COC2OC(CO)C(OC3OC4COC(Cc5ccccc5)OC4C(O)C3O)C(O)C2O)ccc1Cl` [Example 16, N-{5-[(4′,6′-O-((1R)-2-Phenyl-ethylidene)-β-D-maltosyloxy)-methyl]-2-chloro-phenyl}-acetamide], the IC50 was found to be 16300 nM.

As for `C=CCCC(=O)Nc1cc(CO[C@@H]2O[C@H](COC(=O)c3ccccc3)[C@@H](O[C@H]3O[C@@H]4COC(c5ccccc5)O[C@H]4[C@H](O)[C@H]3O)[C@H](O)[C@H]2O)ccc1Cl` (stereo partly drawn) [Example 66, N-{2-Chloro-5-[(6-O-benzoyl-4′,6′-O-benzilidene-β-D-maltosyl)-oxy-methyl]-phenyl}-pent-4-enamide], the IC50 stood at 180 nM.

Regarding `O=C(Nc1cc(CO[C@@H]2O[C@H](CO)[C@@H](O[C@H]3O[C@@H]4COC(c5ccccc5)O[C@H]4[C@H](O)[C@H]3O)[C@H](O)[C@H]2O)ccc1Cl)c1ccco1` (stereo partly drawn) [Example 63, Furan-2-carboxylic acid {5-[(4′,6′-O-benzylidene-β-D-maltosyl)-oxy-methyl]-2-chloro-phenyl}-amide], the IC50 is 7730 nM.

Consider `CC(=O)Nc1cc(COC2OC(CO)C(OC3OC4COC(C)OC4C(O)C3O)C(O)C2O)ccc1Cl` [Example 1, N-{2-Chloro-5-[(4′,6′-O-ethylidene)-β-D-maltosyloxymethyl]-phenyl}-acetamide], for which the “Porcine Smooth Muscle Cell Antiproliferation, percent inhibition” value (@ 100 μM) was 32% @ 100.

As to `CC(=O)Nc1cc(COC2OC(COC(=O)c3ccccc3)C(OC3OC4COC(CCC#N)OC4C(O)C3O)C(O)C2O)ccc1Cl` [Example 19, N-{5-{[6-O-Benzoyl-4′,6′-O-((1R)-3-cyanopropylidene)-β-D-maltosyloxy]-methyl}-2-chloro-phenyl}-acetamide], the IC50 is 1 nM.

On to `CC(=O)Nc1cc(COC2OC(COC(=O)c3ccccc3I)C(OC3OC4COC(c5ccccc5)OC4C(O)C3O)C(O)C2O)ccc1Cl` [Example 43, N-{5-[(4′,6′-O-Benzylidene-6-O-(2-iodo)-benzoyl-β-D-maltosyl)-oxy-methyl]-2-chloro-phenyl)-acetamide], for which the IC50 turned out to be 8 nM.

Take `CC(=O)Nc1cc(COC2OC(CO)C(OC3OC4COC(c5ccccc5)OC4C(O)C3O)C(O)C2O)ccc1C` [Example 57, N-{5-[(4′,6′-O-Benzylidene-β-D-maltosyl)-oxy-methyl]-2-methyl-phenyl}-acetamide]: the IC50 is 8900 nM.

Turning to `CC(=O)Nc1cc(COC2OC(COC(=O)Cc3ccccc3)C(OC3OC4COC(c5ccccc5)OC4C(O)C3O)C(O)C2O)ccc1Cl` [Example 46, (R)-N-[-2-Chloro-5-[[[6-O-(phenylacetyl)-4-O-[4,6-O-(phenylmethylene)-α-D-glucopyranosyl]-β-D-glucopyranosyl]oxy]methyl]phenyl]acetamide], the IC50 is 32 nM.

For `OCC1OC(OCc2ccc(Cl)cc2)C(O)C(O)C1OC1OC2COC(c3ccccc3)OC2C(O)C1O` [Example 68, (4-Chloro)-benzyl-4′,6′-O-benzylidene-β-D-maltoside], the IC50 is 25300 nM.
